Assay results taken from US20120076757A1, “COMPOSITION FOR TRANSMUCOSAL DELIVERY OF POLYPEPTIDES” (Cephalon, Inc., priority 2007, published 2012).
Each block holds one molecule with its values, some of them ahead of it.

Key:
[1] = system: cultured human buccal carcinoma cells (SqCC/Y1 cells)
Method: (§1) In vitro permeability testing was conducted as follows. Starting with acrylic inserts having one end sealed with 0.6 cm square area inserts of acrylic and polycarbonate membranes without cells, the cultured human buccal carcinoma cells (SqCC/Y1 cells) were grown on the membrane surface in culture medium for a period of 24 hours. The culture medium was removed from the top of the insert (“air-lifting” process), wherein the cells continued to receive nutrients from the culture medium beneath the inserts. Under these conditions, the cells were grown for a period of 7 to 10 days so as to grow the cells to multilayer confluence on the polycarbonate membrane, thereby increasing cellular density to a multi-layer, tissue-like barrier resembling that of buccal mucosal tissue.
(§2) The assay was performed by rinsing the inserts with Krebs-Ringer buffer solution without sodium bicarbonate (KRB) and inspecting for uniformity by measuring the transepithelial electrical resistance (TEER). When the average electrical resistance necessary was 350 ohms or greater, the inserts were selected for permeability testing, thereby ensuring consistent permeability barrier thickness and distribution.
(§3) The inserts were separated into the groups (e.g., n=3) with closely similar average TEER values (of the group) to be used in testing particular formulations of active pharmaceutical ingredients (i.e., polypeptide). For a given bile salt, for example, the sample groups were as follows: • 1) polypeptide alone; • 2) polypeptide in combination with bile salt; • 3) polypeptide in combination with effervescent excipient composition (Excipient Formula 1) powder; • 4) polypeptide in combination with bile salt (varying concentrations) and effervescent excipient composition (Excipient Formula 1) powder.
(§4) The inserts were placed into cell culture wells with a defined volume of KRB and incubated at 37° C. on shaker tables set at 100 rpm. Thus, the cells were exposed to the given active ingredient (polypeptide) without and in combination with the various excipient formulations described.
(§5) Samples were removed from the basolateral fluid every 10 minutes for a period of one hour, and the removed fluid was replaced with an equal volume of KRB. At the end of the hour, the residual fluid within the insert was recovered and stored, the insert was rinsed with KRB, and the TEER value again measured. The TEER differences between the starting step TEER and final step TEER were recorded.
(§6) The samples from the basolateral wells were analyzed for the active ingredient (polypeptide) using various techniques. The amount of active in the well was calculated and corrected for sampling loss.
(§7) Enhancement Ratio (ER) is equal to the ratio of the Papp with absorption enhancer divided by the Papp without absorption enhancer. Thus, this technique was used for each of the proposed permeability enhancement compositions below.
(§8) The permeability of fluorescently-labeled polypeptide with and without enhancement was measured by the in vitro permeability assay. The amount of polypeptide permeating through the cells/tissue into the basolateral fluid was measured and the apparent permeability coefficient (Papp) for each polypeptide sample was calculated.

[2] = Anaesthetized dog model, desmopressin oral transmucosal (buccal) permeation, serum by LC/MS/MS; assay type: in vivo
Excerpt: Anesthetized dog models were used to evaluate transmucosal permeation of polypeptide compositions prepared in accordance with the invention. Mature mongrel large-breed (15-35 kg) dogs were screened for medical conditions to qualify. For testing, the dogs were anaesthetized, placed on their right or left side, and cannulated via the cephalic vein. A Teflon ring was attached to the buccal mucosa in a horizontal position to form a reservoir. Biologically active polypeptides to be evaluated were deposited, with or without enhancer components, onto the buccal mucosa surrounded by the ring. Depending upon the experiment, active polypeptides were deposited in the form of solution, dry powder or solid dosage form (tablet). Blood samples were taken every 10 minutes for a period of 2 hours, with additional samples taken up to 4 hours depending upon the protocol. The active-containing compositions were removed from the reservoir at 60 minutes and the reservoir rinsed twice.
At 2 hours, the dog is removed from anesthesia and the ring is removed from its buccal mucosa. Following recovery from anesthesia, subsequent blood samples are taken from the awake dogs. Blood samples are allowed to clot, the serum is separated by centrifugation, and the serum is frozen at −20° or −80° C., depending upon the protocol until analyzed for the active polypeptide content.
Desmopressin (deamino-Cysl-D-Arg Vasopressin, or D-Arg Vasopresin) was tested for buccal permeation into the blood stream by various administration forms: solution, powder, and compressed tablet.
Desmopressin-containing tablets for the experiment were prepared by combining 200 mg of effervescent formulation described in Example 1A (EF 1) with 20 mg sodium taurocholate. This mixture was added directly into a vial of lyophilized desmopressin. […]
Tablets prepared accordingly were tested in dogs per protocol described above. […] Desmopres sin was measured using LC/MS/MS analysis o the serum samples.

[3] = system: cultured human buccal carcinoma cells (SqCC/Y1 cells); assay: In vitro permeability assay (apparent permeability coefficient Papp across multilayer buccal cell culture); conditions: ELISA
Method: as §1, §2, §3, §4, §5, §6, §7, §8

[4] = Anaesthetized dog model, salmon calcitonin oral transmucosal permeation from effervescent tablets; assay type: in vivo; conditions: adding 2.5% NaTC or more to the effervescent formulation
Excerpt: Anesthetized dog models were used to evaluate transmucosal permeation of polypeptide compositions prepared in accordance with the invention. Mature mongrel large-breed (15-35 kg) dogs were screened for medical conditions to qualify. For testing, the dogs were anaesthetized, placed on their right or left side, and cannulated via the cephalic vein. A Teflon ring was attached to the buccal mucosa in a horizontal position to form a reservoir. Biologically active polypeptides to be evaluated were deposited, with or without enhancer components, onto the buccal mucosa surrounded by the ring. Depending upon the experiment, active polypeptides were deposited in the form of solution, dry powder or solid dosage form (tablet). […]
At 2 hours, the dog is removed from anesthesia and the ring is removed from its buccal mucosa. […] Blood samples are allowed to clot, the serum is separated by centrifugation, and the serum is frozen at −20° or −80° C., depending upon the protocol until analyzed for the active polypeptide content.
Salmon calcitonin (s-Ct) was tested for buccal permeation into the blood stream of anesthetized dogs with effervescent compressed tablets containing s-Ct and the bile salt (sodium taurocholate) at 0%, 2.5%, 5.0%, and 10% bile salt. […] The following table contains the formulation information of the tablets evaluated. […]

[5] = INTRON A acquired from Schering Corp.; cited from earlier work
[6] = with bile salt (sodium taurocholate) alone

transport/permeation of the polypeptide across the mucosal tissue in the in vivo model ([2]; desmopressin with combination of bile salt and effervescent formulation): appears to appreciably enhance
Molecule: NC(=O)CC[C@@H]1NC(=O)[C@H](Cc2ccccc2)NC(=O)[C@H](Cc2ccc(O)cc2)NC(=O)CCSSC[C@@H](C(=O)N2CCC[C@H]2C(=O)N[C@H](CCCN=C(N)N)C(=O)NCC(N)=O)NC(=O)[C@H](CC(N)=O)NC1=O [Desmopressin, deamino-Cysl-D-Arg Vasopressin]
in vitro permeation of desmopressin across mucosal tissue (Papp) [1]: does not appear to appreciably increase polypeptide permeation
in vitro transport/permeability of desmopressin across mucosal tissue (Papp) [1]: appears to exhibit appreciable enhancement
permeation of the polypeptide across the mucosal tissue in the in vivo model ([2]; desmopressin in combination with the bile salt alone): does not appear to appreciably increase the permeation
permeation of the polypeptide across the mucosal tissue in the in vivo model ([2]; desmopressin with the effervescent formulations alone): does not appear to appreciably increase the permeation

transmucosal permeability of s-Ct in anesthetized dogs [4]: large improvement in permeability
Molecule: CC(C)C[C@H](NC(=O)[C@H](CCCCN)NC(=O)CNC(=O)[C@H](CC(C)C)NC(=O)[C@@H](NC(=O)[C@@H]1CSSC[C@H](N)C(=O)N[C@@H](CO)C(=O)N[C@@H](CC(N)=O)C(=O)N[C@@H](CC(C)C)C(=O)N[C@@H](CO)C(=O)N[C@@H]([C@@H](C)O)C(=O)N1)C(C)C)C(=O)N[C@@H](CO)C(=O)N[C@@H](CCC(N)=O)C(=O)N[C@@H](CCC(=O)O)C(=O)N[C@@H](CC(C)C)C(=O)N[C@@H](Cc1c[nH]cn1)C(=O)N[C@@H](CCCCN)C(=O)N[C@@H](CC(C)C)C(=O)N[C@@H](CCC(N)=O)C(=O)N[C@H](C(=O)N[C@@H](Cc1ccc(O)cc1)C(=O)N1CCC[C@H]1C(=O)N[C@@H](CCCNC(=N)N)C(=O)N[C@H](C(=O)N[C@@H](CC(N)=O)C(=O)N[C@H](C(=O)NCC(=O)N[C@@H](CO)C(=O)NCC(=O)N[C@H](C(=O)N1CCC[C@H]1C(N)=O)[C@@H](C)O)[C@@H](C)O)[C@@H](C)O)[C@@H](C)O [s-CT]
permeation result of combination compared with individual effects ([3]; s-CT + taurocholate + EF 2): greater than the sum of the individual permeation effects
in vitro permeation of s-CT across mucosal tissue (Papp) ([3]; with EF 2 alone): does not appear to exhibit an increase in permeation
in vitro permeation of s-CT across mucosal tissue (Papp) [3, 6]: does not appear to exhibit an increase in permeation
in vitro permeation/transport of s-CT across mucosal tissue (Papp) ([3]; with effervescent formulation (EF 2) and 1% or 2% bile salt): does appear to exhibit appreciably enhanced permeation/transport

Molecule: IGF-1: Insulin-like Growth Factor-1, 70 amino acids with 3 internal disulfide bonds
permeation result of combination compared with individual effects ([3]; IGF-1 + taurocholate + EF2): greater than the sum of the individual permeation effects
in vitro permeation of IGF-1 across mucosal tissue (Papp) ([3]; with EF 2 alone): does not appear to exhibit an increase in permeation
in vitro permeation/transport of IGF-1 across mucosal tissue (Papp) ([3]; with EF2 and 1% bile salt): appears to exhibit enhanced permeation/transport
in vitro permeation of IGF-1 across mucosal tissue (Papp) [3, 6]: does not appear to exhibit an increase in permeation

Molecule: IFNα
permeation result of combination compared with individual effects ([3]; IFNα + taurocholate + EF 1): greater than the sum of the individual permeation effects
in vitro permeation of IFNα across mucosal tissue (Papp) ([3]; with 1% or 2% bile salt and effervescent composition (EF 1)): does appears to produce appreciable enhancement
in vitro permeation of IFNα across mucosal tissue (Papp) ([3]; with EF 1 alone): does not appear to appreciably increase the permeation
in vitro permeation of IFNα across mucosal tissue (Papp) ([3]; with bile salt alone): does not appear to appreciably increase the permeation
specific activity [5]: 260 million IU per mg protein
